# Values quoted from earlier work as cited in patent publication US20080260683A1, “Rodenticide” (priority 2004, published 2008).
row,SMILES,solubility in water
1,O=c1sc2ccccc2c(O)c1C1CC(c2ccc(-c3ccc(Br)cc3)cc2)Cc2ccccc21 (stereo not shown) [difethialone],insoluble or weakly soluble in water
2,O=c1oc2ccccc2c(O)c1C1CC(c2ccc(OCc3ccc(C(F)(F)F)cc3)cc2)Cc2ccccc21 (stereo not shown) [flocoumafen],insoluble or weakly soluble in water
3,"O=c1oc2ccccc2c(O)c1C1CC(c2ccc(-c3ccc(Br)cc3)cc2)Cc2ccccc21 (stereo not shown) [Brodifacoum, brodifacoum]",insoluble or weakly soluble in water
4,O=c1oc2ccccc2c(O)c1C(CC(O)c1ccc(-c2ccc(Br)cc2)cc1)c1ccccc1 (stereo not shown) [bromadiolone],insoluble or weakly soluble in water
